This is an account of results in patent US7943749B2, “Antimicrobial 2-deoxystreptamine compounds” (Isis Pharmaceuticals, Inc., priority 2004, dated 2011).

Where “and” joins values, the source holds several entries; their conditions need not be identical. Equal entries are not always repeated. Where two headings read alike, the source gives them in different places.

In one assay the test system is E. Coli. Briefly: MIC, E. Coli.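 Also: minimum inhibitory concentration determined in duplicate in 96-well plates, compounds given in 4% aqueous DMSO, with ampicillin and tetracycline as positive controls.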 It counts as cell-based. As to conditions: 24 h.
For the next assay, the system named is S. Aureus. Briefly: MIC, S. Aureus. It counts as cell-based. As to conditions: 24 h.
The target of assay [1] is 16S ribosomal subunit RNA target. Briefly: Mass spectrometry based binding assay (FTICR), 16S. How it is done:
In a typical experiment, 10 μL of an aqueous solution containing 100 mM ammonium acetate buffer, 2.5 or 5 μM of each RNA, and 33% isopropyl alcohol (to aid ion desolvation) was prepared with different concentrations of each ligand or ligand mixture. Samples were introduced into the electrospray ionization source (negative ionization mode) at 1 μL/min and ions were stored for 1 sec in an RF-only hexapole following desolvation. The abundances were integrated from the respective ions for free RNA and the ligand-RNA complex. The primary (1:1 RNA:ligand) and secondary (1:2 complex, if observed). […] The peak ratios were measured at each concentration, then a plot of complex/free RNA versus concentration of ligand added was fitted to a second (or higher) order binding polynomial to determine the KD.

Assay [2] has as its system E. coli S30 bacterial extract (pBestLuc luciferase reporter). Briefly: Coupled bacterial transcription/translation assay. The class given is biochemical. As to conditions: read-out: Trans/trans IC50. Here is the method:
The DNA template, pBestLuc™ (Promega), is a plasmid containing a reporter gene for firefly luciferase fused to a strong tac promoter and ribosome binding site. Messenger RNA from 1 μg pBestLuc is transcribed and translated in E. coli S30 bacterial extract in the presence or absence of test compound. Compounds are tested in a black 96 well microtiter plate with an assay volume of 35 μL. […] The transcription/translation reaction is incubated for 35 minutes at 37° C. followed by detection of functional luciferase with the addition of 30 μL LucLite™ (Packard). Light output is quantitated on a Packard TopCount.

Setting [3] is: range between growth and complete inhibition.

Method for S. aureus (ATCC 13709): Male ICR mice are fed with autoclaved commercial food pellets and sterile water ad libitum. Animals are inoculated intraperitoneally with 1.0×10^6 CFU/0.5 mL/mouse of S. aureus (ATCC 13709) containing 10% mucin. Ten animals each are randomly assigned to either control or treatment groups. Test compound and gentamycin (included as a positive control) are both administered subcutaneously one and 3 hour after infection. Test compound is administered as an aqueous buffer solution (phosphate buffered saline (PBS), pH=7.4). The data is presented as the number of mice out of the 10 in the group that were not protected from lethal infection.

As for `NCCN(CCN)CCOC1C(OC2C(O)C(N)CC(N)C2OC2OC(CO)C(O)C(O)C2N)OC(CO)C1OC1OC(CN)C(O)C(O)C1N` (stereo not shown) [IBIS00560172], the “MIC E. Coli.” value against E. Coli (setting [3]) was more than 50 µM. Moreover, in the assay on S. Aureus (setting [3]), the “MIC S. Aureus” value was 25 to 50 µM.

The compound `CN(C)CCOC1C(OC2C(O)C(N)CC(N)C2OC2OC(CO)C(O)C(O)C2N)OC(CO)C1OC1OC(CN)C(O)C(O)C1N` (stereo not shown) [IBIS00560174] showed an equilibrium dissociation constant (Kd) in assay [1] of 930 nM. In assay [2], the IC50 is 210 nM. The “MIC E. Coli.” value against E. Coli (setting [3]) lay within 12 to 52 µM. Besides, the “MIC S. Aureus” value against S. Aureus (setting [3]) was 6 to 12 µM.

For `NCCCNCCOC1C(OC2C(O)C(N)CC(N)C2OC2OC(CO)C(O)C(O)C2N)OC(CO)C1OC1OC(CN)C(O)C(O)C1N` (stereo not shown) [IBIS00560175], in assay [2], the IC50 was found to be 290 nM. In the assay on E. Coli (setting [3]), the “MIC E. Coli.” value is 25 to 50 µM and 25 µM. The “MIC S. Aureus” value in the assay with S. Aureus (setting [3]) was 3 to 6 µM and 3 µM.

Take `NCCNCCOC1C(OC2C(O)C(N)CC(N)C2OC2OC(CO)C(O)C(O)C2N)OC(CO)C1OC1OC(CN)C(O)C(O)C1N` (stereo not shown) [IBIS00560177]: the IC50 in assay [2] is 290 nM. For the same compound, the “MIC E. Coli.” value in the assay with E. Coli (setting [3]) was 6 µM and 6 to 12 µM. Moreover, the “MIC S. Aureus” value against S. Aureus (setting [3]) was 2 µM and 2 to 3 µM.

`NCC1OC(OC2C(CO)OC(OC3C(O)C(N)CC(N)C3OC3OC(CO)C(O)C(O)C3N)C2OCCNC2CCCNC2)C(N)C(O)C1O` (stereo not shown) [IBIS00560725] had a dissociation constant Kd in assay [1] of 110 nM. Also, in assay [2], the IC50 worked out at 80 nM. Moreover, in the assay on E. Coli (setting [3]), the “MIC E. Coli.” value is reported as 1.5-3^ μM. In the assay on S. Aureus (setting [3]), the “MIC S. Aureus” value lay within 3 to 6 µM.

In the case of `NCC1OC(OC2C(CO)OC(OC3C(O)C(N)CC(N)C3OC3OC(CO)C(O)C(O)C3N)C2OCCNCC2CCCNC2)C(N)C(O)C1O` (stereo not shown) [IBIS00560726], the equilibrium dissociation constant (Kd) in assay [1] was 250 nM and 130 nM.

Regarding `NCC1OC(OC2C(CO)OC(OC3C(O)C(N)CC(N)C3OC3OC(CO)C(O)C(O)C3N)C2OCCNCc2nc3ccccc3[nH]2)C(N)C(O)C1O` (stereo not shown) [IBIS00560797], the dissociation constant (Kd) in assay [1] is 4100 nM. In assay [2], the IC50 worked out at 340 nM. Moreover, the “MIC E. Coli.” value against E. Coli (setting [3]) was in the range of 6 to 12 µM. For the same compound, the “MIC S. Aureus” value in the assay with S. Aureus (setting [3]) fell in the range of 25 to 50 µM.

With `NCC1OC(OC2C(CO)OC(OC3C(O)C(N)CC(N)C3OC3OC(CO)C(O)C(O)C3N)C2OCCNc2cccnc2)C(N)C(O)C1O` (stereo not shown) [IBIS00560798], the Kd in assay [1] stood at 550 nM. The IC50 in assay [2] came to 80 nM. Besides, the “MIC E. Coli.” value with E. Coli (setting [3]) is 3 to 6 µM. The “MIC S. Aureus” value in the assay with S. Aureus (setting [3]) is reported as 0.6-1^ μM.

With `NCC1OC(OC2C(CO)OC(OC3C(O)C(N)CC(N)C3OC3OC(CO)C(O)C(O)C3N)C2OCCNC2CCCCC2)C(N)C(O)C1O` (stereo not shown) [IBIS00560931], the “MIC E. Coli.” value against E. Coli is 3 to 6 µM. Moreover, in the assay with S. Aureus, the “MIC S. Aureus” value is 3 to 5 µM.

Take `NCC1OC(OC2C(CO)OC(OC3C(O)C(N)CC(N)C3OC3OC(CO)C(O)C(O)C3N)C2OCCNc2ccccc2)C(N)C(O)C1O` (stereo not shown) [IBIS00560932]: in the assay with E. Coli, the “MIC E. Coli.” value is 50 to 100 µM. Besides, the “MIC S. Aureus” value with S. Aureus lay within 6 to 12 µM.

Turning to `NCC1OC(OC2C(CO)OC(OC3C(O)C(N)CC(N)C3OC3OC(CO)C(O)C(O)C3N)C2OCCNCc2ccnc(N)c2)C(N)C(O)C1O` (stereo not shown) [IBIS00560965], the “MIC E. Coli.” value in the assay on E. Coli was in the range of 6 to 12 µM. In addition, the “MIC S. Aureus” value against S. Aureus is recorded as 0.6-1^ μM.

On to `NCC1OC(OC2C(CO)OC(OC3C(O)C(N)CC(N)C3OC3OC(CO)C(O)C(O)C3N)C2OCCNCCc2cccnc2)C(N)C(O)C1O` (stereo not shown) [IBIS00560972], for which the “MIC E. Coli.” value in the assay on E. Coli fell in the range of 6 to 12 µM. Besides, in the assay on S. Aureus, the “MIC S. Aureus” value is reported as 0.6-1^ μM.

With `NCC1OC(OC2C(CO)OC(OC3C(O)C(N)CC(N)C3OC3OC(CO)C(O)C(O)C3N)C2OCCNCCc2ccccc2)C(N)C(O)C1O` (stereo not shown) [IBIS00560973], the “MIC E. Coli.” value in the assay with E. Coli was in the range of 3 to 6 µM. Besides, the “MIC S. Aureus” value in the assay with S. Aureus was 0.3 to 0.6 µM. The “number of mice out of the 10 in the group that were not protected from lethal infection” value with S. aureus (ATCC 13709) (0.1 mg/kg subcutaneously 1 and 3 hour after i.p. infection) was 5/10; in the assay with S. aureus (ATCC 13709) (0.5 mg/kg subcutaneously 1 and 3 hour after i.p. infection), 0/10; in the assay on S. aureus (ATCC 13709) (1 mg/kg subcutaneously 1 and 3 hour after i.p. infection), 0/10; with S. aureus (ATCC 13709) (2 mg/kg subcutaneously 1 and 3 hour after i.p. infection), 0/10; in the assay on S. aureus (ATCC 13709) (4.5 mg/kg subcutaneously 1 and 3 hour after i.p. infection) it was 0/10; in the assay on S. aureus (ATCC 13709) (9 mg/kg subcutaneously 1 and 3 hour after i.p. infection) it was 0/10. Further, the “number of mice out of the 10 in the group that were not protected from lethal infection” value with S. aureus (ATCC 13709) (18 mg/kg subcutaneously 1 and 3 hour after i.p. infection) is listed as 0/10; in the assay with S. aureus (ATCC 13709) (37 mg/kg subcutaneously 1 and 3 hour after i.p. infection), 0/10; in the assay with S. aureus (ATCC 13709) (75 mg/kg subcutaneously 1 and 3 hour after i.p. infection) it was 0/10; in the assay with S. aureus (ATCC 13709) (mouse, in vivo), 1/10. Moreover, in the assay with S. aureus (ATCC 13709) (S. aureus ATCC 13709 i.p., compound s.c.), the “prevention of lethal bacterial infection in mice (in words)” value was “effective at preventing lethal bacterial infections in mice”.

In the case of `NCC1OC(OC2C(CO)OC(OC3C(O)C(N)CC(N)C3OC3OC(CO)C(O)C(O)C3N)C2OCCNCc2ccccc2)C(N)C(O)C1O` (stereo not shown) [IBIS00560974], the “MIC E. Coli.” value with E. Coli lay in the range of 3 to 6 µM. For the same compound, the “MIC S. Aureus” value with S. Aureus fell in the range of 3 to 5 µM.

With `NCC1OC(OC2C(CO)OC(OC3C(O)C(N)CC(N)C3OC3OC(CO)C(O)C(O)C3N)C2OCCNCc2ccc(N)nc2)C(N)C(O)C1O` (stereo not shown) [IBIS00560975], the “MIC E. Coli.” value against E. Coli was in the range of 3 to 6 µM. For the same compound, the “MIC S. Aureus” value in the assay on S. Aureus lay in the range of 0.3 to 0.6 µM.

In the case of `NCC1OC(OC2C(CO)OC(OC3C(O)C(N)CC(N)C3OC3OC(CO)C(O)C(O)C3N)C2OCCNc2ccccn2)C(N)C(O)C1O` (stereo not shown) [IBIS00561109], the “MIC E. Coli.” value in the assay on E. Coli was in the range of 12 to 25 µM. In addition, the “MIC S. Aureus” value in the assay on S. Aureus was in the range of 1 to 2 µM.

Take `NCC1OC(OC2C(CO)OC(OC3C(O)C(N)CC(N)C3OC3OC(CO)C(O)C(O)C3N)C2OCCNCCCc2ccccc2)C(N)C(O)C1O` (stereo not shown) [IBIS00561144]: in the assay with E. Coli, the “MIC E. Coli.” value was in the range of 3 to 5 µM. The “MIC S. Aureus” value against S. Aureus lay within 0.6 to 1.2 µM.

As for `NCC1OC(OC2C(CO)OC(OC3C(O)C(N)CC(N)C3OC3OC(CO)C(O)C(O)C3N)C2OCCNCCCCc2ccccc2)C(N)C(O)C1O` (stereo not shown) [IBIS00561145], the “MIC E. Coli.” value with E. Coli fell in the range of 3 to 5 µM. Also, in the assay with S. Aureus, the “MIC S. Aureus” value was 0.6 to 1.2 µM.

Turning to `COc1cc(CCNCCOC2C(OC3C(O)C(N)CC(N)C3OC3OC(CO)C(O)C(O)C3N)OC(CO)C2OC2OC(CN)C(O)C(O)C2N)cc(OC)c1` (stereo not shown) [IBIS00561192], the “MIC E. Coli.” value with E. Coli fell in the range of 10 to 20 µM. In the assay with S. Aureus, the “MIC S. Aureus” value lay in the range of 5 to 10 µM.

Turning to `NCC1OC(OC2C(CO)OC(OC3C(O)C(N)CC(N)C3OC3OC(CO)C(O)C(O)C3N)C2OCCNCCc2ccc(-c3ccccc3)cc2)C(N)C(O)C1O` (stereo not shown) [IBIS00561193], in the assay with E. Coli, the “MIC E. Coli.” value fell in the range of 20 to 40 µM. The “MIC S. Aureus” value in the assay with S. Aureus was in the range of 5 to 10 µM.

With `NCC1OC(OC2C(CO)OC(OC3C(O)C(N)CC(N)C3OC3OC(CO)C(O)C(O)C3N)C2OCCNC23CC4CC(CC(O)(C4)C2)C3)C(N)C(O)C1O` (stereo not shown) [IBIS00561195], the “MIC E. Coli.” value against E. Coli was 20 to 40 µM. The “MIC S. Aureus” value with S. Aureus was in the range of 1 to 3 µM.

With `NCC1OC(OC2C(CO)OC(OC3C(O)C(N)CC(N)C3OC3OC(CO)C(O)C(O)C3N)C2OCCNC2CCCc3ccccc32)C(N)C(O)C1O` (stereo not shown) [IBIS00561950], the “MIC E. Coli.” value against E. Coli was more than 10 µM. In addition, in the assay with S. Aureus, the “MIC S. Aureus” value is 1.25 to 2.5 µM.

On to `NCC1OC(OC2C(CO)OC(OC3C(O)C(N)CC(N)C3OC3OC(CO)C(O)C(O)C3N)C2OCCNCCC2CC3CCC2C3)C(N)C(O)C1O` (stereo not shown) [IBIS00561951], for which, in the assay on E. Coli, the “MIC E. Coli.” value is more than 10 µM. The “MIC S. Aureus” value against S. Aureus was in the range of 5.0 to 10.0 µM.

For the compound `CC(C)CCCC(C)C1CCC2C3CCC4CC(NCCOC5C(OC6C(O)C(N)CC(N)C6OC6OC(CO)C(O)C(O)C6N)OC(CO)C5OC5OC(CN)C(O)C(O)C5N)CCC4(C)C3CCC12C` (stereo not shown) [IBIS00561952], in the assay on E. Coli, the “MIC E. Coli.” value was more than 10 µM. Further, the “MIC S. Aureus” value in the assay with S. Aureus lay within 2.5 to 5.0 µM.

Consider `NCC1OC(OC2C(CO)OC(OC3C(O)C(N)CC(N)C3OC3OC(CO)C(O)C(O)C3N)C2OCCNCCc2cc(C(F)(F)F)cc(C(F)(F)F)c2)C(N)C(O)C1O` (stereo not shown) [IBIS00561954], for which the “MIC E. Coli.” value with E. Coli was more than 10 µM. The “MIC S. Aureus” value with S. Aureus was 2.5 to 5.0 µM.

For orientation: Kd means the equilibrium constant for the complex coming apart. Low readings indicate higher affinity, high ones lower affinity.
